# Test results published in paper PMC8286840, “Identifying SARS-CoV-2 antiviral compounds by screening for small molecule inhibitors of Nsp3 papain-like protease” (Biochemical Journal, 2021).
# Structures can show the parent of a compound that is named as a salt. Where two headings read alike, the source gives them in different places.
# Key:
# [1] = molecular target: T1, SARS-CoV-2 PLpro (nsp3 1564–1878) (Severe acute respiratory syndrome coronavirus 2, UniProt P0DTD1); assay: biochemical; set-up: FRET-quenched peptide (Pro3) cleavage by PLpro, 10 min pre-incubation, slope over 20 min, normalised to no-compound control; details: high concentration screen, read-out: % of control remaining
# [2] = molecular target: T1, SARS-CoV-2 PLpro (nsp3 1564–1878); assay: biochemical; set-up: FRET-quenched peptide (Pro3) cleavage by PLpro, 10 min pre-incubation, slope over 20 min, normalised to no-compound control; details: low concentration screen, read-out: % of control remaining
smiles,measurement,setting,value
CCN(CC)Cc1ccc(C(=O)N(CCc2ccccc2OC)[C@@H]2CCNC2)cc1 [4-[(diethylamino)methyl]-N-[2-(2-methoxyphenyl)ethyl]-N-[(3R)-3-pyrrolidinyl]benzamide dihydrochloride],remaining activity at 3.75 µM,[1]; Well no.=5467,109%
same,remaining activity at 1.25 µM,[2]; Well no.=5467,107%
O=[N+]([O-])c1cc(S(=O)(=O)Nc2ccc(O)c3ccccc23)ccc1Cl [4-chloro-N-(4-hydroxy-1-naphthyl)-3-nitrobenzenesulfonamide],remaining activity at 3.75 µM,[1]; Well no.=5816,97.4%
same,remaining activity at 1.25 µM,[2]; Well no.=5816,96.1%
COc1ccc(C2(C#N)CCC(C(=O)O)CC2)cc1OC1CCCC1 (stereo not shown) [4-cyano-4-[3-(cyclopentyloxy)-4-methoxyphenyl]cyclohexanecarboxylic acid],remaining activity at 3.75 µM,[1]; Well no.=5837,99.9%
same,remaining activity at 1.25 µM,[2]; Well no.=5837,101%
"C[C@@H](c1nc(-c2ccc(C#N)cc2)cs1)[C@](O)(Cn1cncn1)c1ccc(F)cc1F [4-{2-[(1R,2R)-2-(2,4-difluorophenyl)-2-hydroxy-1-methyl-3-(1H-1,2,4-triazol-1-yl)propyl]-1,3-thiazol-4-yl}benzonitrile]",remaining activity at 3.75 µM,[1]; Well no.=5644,92.4%
same,remaining activity at 1.25 µM,[2]; Well no.=5644,90.9%
"CCCCCCCOc1cc2c(cc1/C(C)=C/c1ccc(C(=O)O)cc1)C(C)(C)CCS2(=O)=O [4-{(1E)-2-[7-(heptyloxy)-4,4-dimethyl-1,1-dioxido-3,4-dihydro-2H-thiochromen-6-yl]-1-propenyl}benzoic acid]",remaining activity at 3.75 µM,[1]; Well no.=5553,105%
same,remaining activity at 1.25 µM,[2]; Well no.=5553,103%
"COc1cc(C(=O)OCCCCNC(=N)N)cc(OC)c1O [4-{[amino(imino)methyl]amino}butyl 4-hydroxy-3,5-dimethoxybenzoate]",remaining activity at 3.75 µM,[1]; Well no.=5718,98.3%
same,remaining activity at 1.25 µM,[2]; Well no.=5718,93.5%
NS(=O)(=O)c1ccc2c(c1)C1C=CCC1C(c1ccc(Br)cc1)N2 (stereo not shown) [4BP-TQS],remaining activity at 3.75 µM,[1]; Well no.=5971,105%
same,remaining activity at 1.25 µM,[2]; Well no.=5971,105%
Nc1ncnc2c1ncn2[C@@H]1O[C@H](C(=O)NC2CC2)[C@@H](O)[C@H]1O [5'-(N-Cyclopropyl)carboxamidoadenosine],remaining activity at 3.75 µM,[1]; Well no.=86,101%
same,remaining activity at 1.25 µM,[2]; Well no.=86,99.1%
Nc1ccn([C@@H]2O[C@H](COP(=O)(O)O)[C@@H](O)[C@H]2O)c(=O)n1 [5'-Cytidylic acid],remaining activity at 3.75 µM,[1]; Well no.=8883,86.7%
same,remaining activity at 1.25 µM,[2]; Well no.=8883,83.4%
C[C@H]1O[C@@H](n2cnc3c(N)ncnc32)[C@H](O)[C@@H]1O [5'-Deoxyadenosine],remaining activity at 3.75 µM,[1]; Well no.=7251,99%
same,remaining activity at 3.75 µM,[1]; Well no.=7904,94.7%
same,remaining activity at 1.25 µM,[2]; Well no.=7251,97.6%
same,remaining activity at 1.25 µM,[2]; Well no.=7904,91.4%
CSC[C@H]1O[C@@H](n2cnc3c(N)ncnc32)[C@H](O)[C@@H]1O [5'-Methylthioadenosine],remaining activity at 3.75 µM,[1]; Well no.=6295,103%
same,remaining activity at 3.75 µM,[1]; Well no.=7812,106%
same,remaining activity at 1.25 µM,[2]; Well no.=6295,102%
same,remaining activity at 1.25 µM,[2]; Well no.=7812,105%
CCNC(=O)[C@H]1O[C@@H](n2cnc3c(N)ncnc32)[C@H](O)[C@@H]1O [5'-N-Ethylcarboxamidoadenosine],remaining activity at 3.75 µM,[1]; Well no.=694,96%
same,remaining activity at 3.75 µM,[1]; Well no.=7950,96.2%
same,remaining activity at 3.75 µM,[1]; Well no.=8119,102%
same,remaining activity at 1.25 µM,[2]; Well no.=694,97.5%
same,remaining activity at 1.25 µM,[2]; Well no.=7950,95.4%
same,remaining activity at 1.25 µM,[2]; Well no.=8119,104%
CNC(=O)[C@H]1O[C@@H](n2cnc3c(N)ncnc32)[C@H](O)[C@@H]1O [5'-N-Methyl carboxamidoadenosine],remaining activity at 3.75 µM,[1]; Well no.=14,98%
same,remaining activity at 1.25 µM,[2]; Well no.=14,101%
"CCCCC/C=C\C\C=C/C=C/C=C/[C@@H](O)[C@@H](O)CCCC(=O)O [5(S),6(R)-DIHETE]",remaining activity at 3.75 µM,[1]; Well no.=4373,103%
same,remaining activity at 1.25 µM,[2]; Well no.=4373,106%
CCCCC/C=C\C/C=C\C/C=C\C=C\[C@H](CCCC(=O)O)OO [5(S)-HPETE],remaining activity at 3.75 µM,[1]; Well no.=4327,103%
same,remaining activity at 1.25 µM,[2]; Well no.=4327,106%
"CCCCCCCC/C=C\C/C=C\C/C=C\CCCC(=O)O [5(Z), 8(Z), 11(Z)-Eicosatrienoic Acid]",remaining activity at 3.75 µM,[1]; Well no.=4303,103%
same,remaining activity at 3.75 µM,[1]; Well no.=4594,100%
same,remaining activity at 1.25 µM,[2]; Well no.=4303,104%
same,remaining activity at 1.25 µM,[2]; Well no.=4594,98.9%
"CCCCCCCCCCC/C=C\C/C=C\CCCC(=O)O [5(Z), 8(Z)-Eicosadienoic acid]",remaining activity at 3.75 µM,[1]; Well no.=4410,92.4%
same,remaining activity at 1.25 µM,[2]; Well no.=4410,93.6%
CCCCCCCCCCCCCC/C=C\CCCC(=O)O [5(Z)-Eicosenoic acid],remaining activity at 3.75 µM,[1]; Well no.=4408,92.5%
same,remaining activity at 1.25 µM,[2]; Well no.=4408,101%
"CC1(C)CCC=[N+]1[O-] [5,5-Dimethyl-1-pyrroline-N-oxide]",remaining activity at 3.75 µM,[1]; Well no.=501,97.1%
same,remaining activity at 1.25 µM,[2]; Well no.=501,97%
"O=C1NC(=O)C(c2ccccc2)(c2ccccc2)N1 [5,5-Diphenylhydantoin]",remaining activity at 3.75 µM,[1]; Well no.=641,98.3%
same,remaining activity at 1.25 µM,[2]; Well no.=641,99.8%
"COc1cc(/C=C/c2ccccc2)oc(=O)c1 [5,6-Dehydrokawain]",remaining activity at 3.75 µM,[1]; Well no.=3559,103%
same,remaining activity at 1.25 µM,[2]; Well no.=3559,105%
"CCCCC/C=C\C/C=C\C/C=C\C[C@H]1O[C@H]1CCCC(=O)O [5,6-Epoxyeicosatrienoic acid]",remaining activity at 3.75 µM,[1]; Well no.=4383,103%
same,remaining activity at 1.25 µM,[2]; Well no.=4383,105%
"O=C(O)c1cc(=O)c2c(Cl)cc(Cl)cc2[nH]1 [5,7-Dichlorokynurenic acid]",remaining activity at 3.75 µM,[1]; Well no.=546,97.5%
same,remaining activity at 1.25 µM,[2]; Well no.=546,95.2%
"COc1c(O)cc2oc(-c3ccc(O)cc3)cc(=O)c2c1O [5,7-dihydroxy-2-(4-hydroxyphenyl)-6-methoxy-4H-chromen-4-one]",remaining activity at 3.75 µM,[1]; Well no.=5542,102%
same,remaining activity at 1.25 µM,[2]; Well no.=5542,101%
"CCCCCC#CCC#CCC#CCC#CCCCC(=O)O [5,8,11,14-Eicosatetraynoic acid]",remaining activity at 3.75 µM,[1]; Well no.=4472,97.4%
same,remaining activity at 1.25 µM,[2]; Well no.=4472,98.7%
"CCCCCCCCC#CCC#CCC#CCCCC(=O)O [5,8,11-Eicosatriynoic acid]",remaining activity at 3.75 µM,[1]; Well no.=411,97.5%
same,remaining activity at 3.75 µM,[1]; Well no.=4470,92.3%
same,remaining activity at 1.25 µM,[2]; Well no.=411,101%
same,remaining activity at 1.25 µM,[2]; Well no.=4470,96.8%
"CN(C)C(=O)Oc1cc(OC(=O)N(C)C)cc(C(O)CNC(C)(C)C)c1 (stereo not shown) [5-(2-(tert-butylamino)-1-hydroxyethyl)-1,3-phenylene bis(dimethylcarbamate) hydrochloride]",remaining activity at 3.75 µM,[1]; Well no.=5871,103%
same,remaining activity at 1.25 µM,[2]; Well no.=5871,104%
"O=C1OC(CN2CCOCC2)CN1/N=C/c1ccc([N+](=O)[O-])o1 (stereo not shown) [5-(4-morpholinylmethyl)-3-{[(E)-(5-nitro-2-furyl)methylidene]amino}-1,3-oxazolidin-2-one]",remaining activity at 3.75 µM,[1]; Well no.=6079,98.7%
same,remaining activity at 1.25 µM,[2]; Well no.=6079,99.9%
"c1cc(-c2cnn3cc(-c4ccc(N5CCNCC5)cc4)cnc23)c2cccnc2c1 [5-(6-(4-(piperazin-1-yl)phenyl)pyrazolo[1,5-a]pyrimidin-3-yl)quinoline]",remaining activity at 3.75 µM,[1]; Well no.=6009,101%
same,remaining activity at 1.25 µM,[2]; Well no.=6009,104%
